Where a SMILES comes first, the peptide text is derived from it. [ ]: non-standard residue; d: D form.
Tests used:
Toxicity in vivo = test: Toxicity in vivo
Text: peptide #1 (SEQ. ID NO:1) appears to be non-toxic.

T cells = test: Activation of T cells by mitogenic proliferation (ConA, PHA); format: cell-based, C57BL/6 mice; conditions: concentration not given; 0 not defined
Text: c) Activation of T or B cells by Mitogenic Proliferation
A mitogenic lectin (mitogen) is a glycoprotein which binds and cross-links specific cells surface carbohydrate determinants, and will polyclonally stimulate lymphoid cells. Lymphocyte activation by either antigens or mitogens results in intracellular changes and the subsequent development into a lymphoblast. Mitogenic stimulation of lymphocytes in vitro is believed to mimic the series of events which occur in vivo following their stimulation by specific antigens. PHA and ConA; PWM and LPS mitogens can be used as a measurement of T cell and B cell activity, respectively. Briefly, the spleen mononuclear leukocytes from C57BL/6 mice are incubated in the presence or absence of mitogens with or without candidate drugs. After 72 hours or 5 days, ^3 H-thymidine incorporation is recorded as an indication of cell proliferation.
Lymphocytes were isolated from mice spleen or human blood in accordance to methods well known in the art. 100 μl of cell suspension of 2×10^6 cells/ml was added per well (2x10^5 cells/well) and incubated in the presence of lectin at the following concentrations:
PHA=0.01% to 0.001% final concentration
Cells were incubated for 3 days with PHA or ConA, or 5 days with PWM or LPS. 1 μCi of tritiated thymidine was added to each well for the last 6 hours (or 0.5 μCi for 18 hrs). The cells were harvested in a cell Harvester (Tortech®) and counted in a Beta counter.

[1] = Stability in Human Whole Blood at 37° C., HPLC; format: in vitro ADME; parameters: half-life: dose or concentration left out as unconfirmed; conditions: for HPLC AREA: human whole blood 37° C.; for half-life: human, human whole blood, 37° C.
Method: The procedures are the same as example 5 with the exceptions that human whole blood was substituted for rat whole blood, and that in Step 2, (blood incubation) aliquotes were taken at the following times: […]

P815 target cells = test: Cytotoxic T lymphocytes (CTL) assay, 51Cr release, after 5 days mixed culture with drug; format: cell-based, C57BL/6 mice
Text: 1. Cytotoxic T Lymphocytes (CTL) Mixed Lymphocyte Reaction (MLR) and Mitogenic Response Assays
The protocols used are described in Hudson L., Haay F., Pratical immunology, 3rd edition, Blackwell, Scientific publications, Oxford 1989, p. 158-162, and p.447.
Lymphocytes were isolated from C57BL/6 mice and DBA/2 mice in accordance to techniques well known in the art. Cell concentration was adjusted to 10×10^6 cell/ml for each assay. The cells isolated from DBA/2 mice were irradiated with 3000 Rads.
In a 6 well plate, each well was set up with:
The cells were incubated for five days at 37° C. in 5% CO2, after which CTL and MLR assays were performed.
a) Cytotoxic T Lymphocytes (CTL)
P815 target cells were labelled with Cr^51 (0.1 mCi). After labelling, the cells were washed three times and resuspended to a concentration of 5×10^4 cells/ml in media. p T cells were then counted and diluted to obtain a concentration of 2.5×10^6 cells/ml, and then further diluted to obtain the following effector:target ratios:
100 μl of target cells+100 μl of CTLs were incubated for 4 hours. In parallel wells, 100 μl of target cells+100 μl of media were incubated for spntaneous release. After incubation, cells were centrifuged and 100 μl of supernatant was then counted using a gamma counter.
Results are expressed as % specific ^51 Cr release= [formula] where ER=experimental release, SR=spontaneous releaase, and
0 represents less than 20%, + represents 20-40%, ++ represents 40-60%, +++ represent 60-80%, and ++++ represents 80% and over.

| Structure (SMILES) | gross pathological observations (in words) (Toxicity in vivo; in vivo) | toxic effect (in words) (Toxicity in vivo; up to 200 mg/kg) | Activation of T Cells, ConA (T cells) | Activation of T Cells, PHA (T cells) | HPLC AREA ([1]; 0 min) | HPLC AREA ([1]; 15 min) | HPLC AREA ([1]; 30 min) | HPLC AREA ([1]; 60 min) | HPLC AREA ([1]; 90 min) | HPLC AREA ([1]; 120 min) | HPLC AREA ([1]; 150 min) | HPLC AREA ([1]; 180 min) | HPLC AREA ([1]; 210 min) | half-life [1] [min] | CTL, % augmentation compared to IL-2 (IL-2 is 100%) (P815 target cells; 10^-9 M) | toxicity in vivo (in words) (Toxicity in vivo; animals treated with 50, 100, 200, and 300 mg/kg) | HPLC AREA ([1]; 45 min) | CTL, % augmentation compared to IL-2 (IL-2 is 100%) (P815 target cells; 10^-7 M) | stimulation of CTL in vitro (in words) (P815 target cells; summary of Table 1) |
| --- | --- | --- | --- | --- | --- | --- | --- | --- | --- | --- | --- | --- | --- | --- | --- | --- | --- | --- | --- |
| NCCCC[C@@H](N)C(=O)N[C@@H](CC(N)=O)C(=O)N1CCC[C@H]1C(=O)N[C@@H](Cc1ccc(O)cc1)C(=O)O [PEPTIDE #5, H-(D-Lys)-Asn-Pro-Tyr-OH] (H-[dK]NPY-OH) | no sign of irritation | No toxic effect | 0 | 0 | 2857082.5 | 3066465 | 3017509.5 | 3135696.5 | 3005211 | 3476665.5 | 3063052 | 3108157 | 3181899 | > 210 | ++++ (++++ represents 80% and over) |  |  |  |  |
| NCCCC[C@H](N)C(=O)N[C@@H](CC(N)=O)C(=O)N1CCC[C@H]1C(=O)N[C@@H](Cc1ccc(O)cc1)C(=O)O [PEPTIDE #1, H-Lys-Asn-Pro-Tyr-OH] (H-KNPY-OH) |  |  | 0 | 0 | 887657 | 354842 | 127725 |  |  |  |  |  |  | ~20 |  | No apparent toxicity | 0 | ++ (++ represents 40-60%) | stimulates CTL's |

Source: patent US5980913A, “Peptides having immunomodulatory activity” (Biochem Pharma, Inc., priority 1994, dated 1999)
